Test: Inhibition of HAP dissolution (calcium in supernatant by ICP)
Assay type: physicochemical
Conditions: compound 1 mM; supersaturated calcium phosphate, 0.05 M Tris pH 7.4, 37° C., 24 h
Experimental: The test based on a slightly modified method of Francis et al. (Francis, M. D. The inhibition of calcium hydroxyapatite crystal growth by polyphosphonates and polyphosphates. Calcif Tissue Res 1969, 3, 151-162). The extent of HAP formation in the presence of inhibitors was studied in supersaturated calcium phosphate solutions.
The final concentration of calcium (CaCl2.2H2O) and phosphate (K2HPO4) ions in the incubation solutions was 3.87 mM and 2.32 mM, respectively, yielding a molar ratio of [Ca]/[PO4]=1.67, as in hydroxyapatite (HAP). Each salt solution was prepared in 0.05 M Tris buffer, pH 7.4. The tested BP compound (1 mM) was dissolved in […]. 5 ml of 7.74 mM CaCl2.2H2O solution containing the BP compound and 5 ml of the 4.64 mM K2HPO4 were mixed in borosilicate glass vials (acid and acetone washed). The vials were then placed in a shaker at 37° C. for 24 h. The vials contents were centrifuged (4 min, 4000 rpm) and the supernatants were then separated and analyzed for calcium concentration by ICP Analysis.

## C=Cc1ccc(C(O)(P(=O)([O-])[O-])P(=O)([O-])O)cc1.[Na+].[Na+].[Na+] [St-BP monomer, Trisodium hydroxyl (4-vinylphenyl) methelenebisphosphonic acid]
  Calcium ions concentration in filtrate (% of initial concentration): 45 % of initial concentration

— patent US10508126B2, “Bisphosphonates vinylic monomers and polymers and uses thereof” (BAR-ILAN UNIVERSITY, priority 2012, dated 2019)
